According to patent US12721342B2, “Agricultural composition of indoleacetic acid having increased photostability, process for the production and use thereof” (TOTAL BIOTECNOLOGIA INDÚSTRIA E COMÉRCIO S/A, priority 2021, dated 2026):

Assays:
[1] = depending on the wavelength and intensity; cited from earlier work
[2] = Photostability to UV light, first assay (IAA concentration by Salkwolski reagent); assay type: physicochemical
Procedure: For validating the formulation that guarantees photostability of the indoleacetic acid phytohormone, two procedures were carried out. In the first assay, the following was compared: i) synthetic IAA with water (with no protection from melanoidins); ii) synthetic IAA with the same culture medium used in the biological IAA production process of the present invention and iii) biological IAA; all samples being subjected to the sterilization process at 121° C. for approximately 1 hour, as claimed for the stabilization of indole compounds due to the production of melanoidins via Maillard reaction. After the period of time required for stabilization, IAA concentrations were assessed using Salkwolski reagent according to the methodology proposed by Glickmann and Dessaux (1994).

## O=C(O)Cc1c[nH]c2ccccc12 [IAA, indoleacetic acid]
[1]
  reduction of IAA by light decomposition: up to 90%

## O=C(O)Cc1c[nH]c2ccccc12 [indoleacetic acid]
[2]; 1 hour of exposure to UV light, samples sterilized at 121° C. for approximately 1 hour
  photodegradation: 74.5%
[2]; after 4 hours of exposure to UV light
  degradation by UV light (in words): fully degraded
